# Test results published in patent publication US10336732B2, “1-heterocyclyl isochromanyl compounds and analogs for treating CNS disorders” (Sunovion Pharmaceuticals Inc., priority 2015, dated 2019).
# Test system: mice
# Assay: Neuropharmacological assay (SmartCube), behavioral signature of compound-treated mice
# Type: in vivo
# Settings: i.p. 15 min before behavioral test, most efficacious dose(s) of 3 doses
# How it was run: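 Mice received compound i.p. in NMP/PEG/propylene glycol vehicle at 3 doses, 15 min before testing. Video-captured behavior was algorithmically compared with a reference-drug signature database.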
SMILES,AD: ADHD (probability that behavioral signature matches class),AG: analgesic (probability that behavioral signature matches class),AX: anxiolytic (probability that behavioral signature matches class),CE: cognitive enhancer (probability that behavioral signature matches class),DP: anti-depressant (probability that behavioral signature matches class),HA: hallucinogen (probability that behavioral signature matches class),MS: mood stabilizer (probability that behavioral signature matches class),PS: anti-psychotic (probability that behavioral signature matches class),SD: sedative hypnotic (probability that behavioral signature matches class),UN: uncharacterized CNS activity (probability that behavioral signature matches class)
"Clc1ccc2c(c1)CCO[C@@H]2[C@@H]1CCCN1 [Compound I-33, (S)-2-((S)-6-chloroisochroman-1-yl)pyrrolidine]",+ (LOQ ≤ + <5%),+ (LOQ ≤ + <5%),++ (5% ≤ ++ <25%),++ (5% ≤ ++ <25%),++ (5% ≤ ++ <25%),+ (LOQ ≤ + <5%),+ (LOQ ≤ + <5%),+++ (25% ≤ +++ <50%),++ (5% ≤ ++ <25%),+ (LOQ ≤ + <5%)
"Clc1ccc2c(c1)CCO[C@H]2[C@@H]1CCCN1 [Compound I-34, (S)-2-((R)-6-chloroisochroman-1-yl)pyrrolidine]",+ (LOQ ≤ + <5%),++ (5% ≤ ++ <25%),++ (5% ≤ ++ <25%),++ (5% ≤ ++ <25%),++ (5% ≤ ++ <25%),+ (LOQ ≤ + <5%),+ (LOQ ≤ + <5%),++ (5% ≤ ++ <25%),++ (5% ≤ ++ <25%),+++ (25% ≤ +++ <50%)
"Clc1ccc2c(c1)CCO[C@H]2[C@H]1CCCN1 [Compound I-35, (R)-2-((R)-6-chloroisochroman-1-yl)pyrrolidine]",+ (LOQ ≤ + <5%),+ (LOQ ≤ + <5%),++ (5% ≤ ++ <25%),++ (5% ≤ ++ <25%),++ (5% ≤ ++ <25%),+ (LOQ ≤ + <5%),+ (LOQ ≤ + <5%),+++ (25% ≤ +++ <50%),++ (5% ≤ ++ <25%),++ (5% ≤ ++ <25%)
"Clc1ccc2c(c1)CCO[C@@H]2[C@H]1CCCN1 [Compound I-36, (R)-2-((S)-6-chloroisochroman-1-yl)pyrrolidine]",+ (LOQ ≤ + <5%),++ (5% ≤ ++ <25%),++ (5% ≤ ++ <25%),++ (5% ≤ ++ <25%),++ (5% ≤ ++ <25%),+ (LOQ ≤ + <5%),++ (5% ≤ ++ <25%),+++ (25% ≤ +++ <50%),+ (LOQ ≤ + <5%),++ (5% ≤ ++ <25%)

# Same assay, conditions: i.p. 15 min before behavioral test, most efficacious dose(s) of 3 doses
row,SMILES,XG: anxiogenic (probability that behavioral signature matches class)
1,"Clc1ccc2c(c1)CCO[C@@H]2[C@@H]1CCCN1 [Compound I-33, (S)-2-((S)-6-chloroisochroman-1-yl)pyrrolidine]",+ (LOQ ≤ + <5%)
2,"Clc1ccc2c(c1)CCO[C@H]2[C@@H]1CCCN1 [Compound I-34, (S)-2-((R)-6-chloroisochroman-1-yl)pyrrolidine]",+ (LOQ ≤ + <5%)
3,"Clc1ccc2c(c1)CCO[C@H]2[C@H]1CCCN1 [Compound I-35, (R)-2-((R)-6-chloroisochroman-1-yl)pyrrolidine]",+ (LOQ ≤ + <5%)
4,"Clc1ccc2c(c1)CCO[C@@H]2[C@H]1CCCN1 [Compound I-36, (R)-2-((S)-6-chloroisochroman-1-yl)pyrrolidine]",+ (LOQ ≤ + <5%)
